This note sets out measurements from patent publication US20120022045A1, “BRIDGED COMPOUNDS AS HIV INTEGRASE INHIBITORS” (priority 2009, published 2012).

Molecules are shown by their SMILES. Read-outs that look alike come from different tables or passages of the source.

Holding throughout (format): cell-based
The test system of one assay is HIV-1. The assay is described as follows: Inhibition of acute HIV-1 infection of T-lymphoid cells (spread assay). The following applies: 10% FBS, read-out: IC95 (nM) in the presence of 10% FBS. On the procedure:
Assays for the inhibition of acute HIV-1 infection of T-lymphoid cells were conducted in accordance with Vacca, J. P. et al., Proc. Natl. Acad. Sci. USA 1994, 91: 4096.

For the next assay, the system named is HIV-1 wild type IIIB. Put plainly: Single cycle infectivity assay in HeLa P4-2 cells, wild type virus. As for the experimental part: (§1) An assay for measuring the inhibition of acute HIV-1 infection with HeLa P4-2 cells in a single cycle infectivity assay was conducted using methods described in Joyce et al., J. Biol. Chem. 2002, 277: 45811, Hazuda et al., Science 2000, 287: 646, and Kimpton et al, J. Virol. 1992, 66: 2232. Proviral plasmids encoding viruses containing specific mutations in the integrase gene (N155H, Q148R, Y143R, E92Q, or G140S/Q148H) were generated by site-directed mutagenesis, and viruses were produced by transfecting 293T cells with the appropriate proviral plasmids.

The test system of assay [1] is HIV-1 integrase mutant virus N155H. The assay is described as follows: Single cycle infectivity assay in HeLa P4-2 cells, integrase mutant N155H virus. The conditions noted are these: fold shift in IC50 versus wild type IIIB. On the procedure: as §1
In assay [2] the test system is HIV-1 integrase mutant virus Q148R. The assay is described as follows: Single cycle infectivity assay in HeLa P4-2 cells, integrase mutant Q148R virus. The following applies: fold shift in IC50 versus wild type IIIB. On the procedure:
as §1

In assay [3] the test system is HIV-1 integrase mutant virus Y143R. The assay is described as follows: Single cycle infectivity assay in HeLa P4-2 cells, integrase mutant Y143R virus. The following applies: fold shift in IC50 versus wild type IIIB. On the procedure: as §1
For assay [4], the system named is HIV-1 integrase mutant virus G140S/Q148H. Put plainly: Single cycle infectivity assay in HeLa P4-2 cells, integrase mutant G140S/Q148H virus. The conditions noted are these: fold shift in IC50 versus wild type IIIB. As for the experimental part: as §1
[5] abbreviates: Human immunodeficiency virus 1, T-lymphoid.
[6] abbreviates: Human immunodeficiency virus 1, IIIB, HeLaP4-2, wild type IIIB.

A word on the IC95: it is the point of the concentration-response curve where the effect stands at 95%. In general, IC50 refers to the point on the concentration scale where inhibition reaches its midpoint. On to `CCC1C2CCC(N(C)C(=O)C(=O)N(C)C)(CO2)c2nc(C(=O)NCc3ccc(F)cc3)c(O)c(=O)n21` (single isomer, unassigned) [Example 25C, N-(8-ethyl-4-{[(4-fluorobenzyl)amino]carbonyl}-5-hydroxy-6-oxo-10-oxa-3,7-diazatricyclo[7.2.2.0^2,7]trideca-2,4-dien-1-yl)-N,N′,N′-trimethylethanediamide], for which, in the assay with HIV-1, the IC95 turned out to be 10.8 nM. This compound had an IC50 in the assay with HIV-1 wild type IIIB (wild type IIIB) of 6 nM. Also, the “N155H (shift)” value in assay [1] is on record as 6 fold. For the same compound, in assay [2], the “Q148R (shift)” value was found to be 4 fold. The “Y143R (shift)” value in assay [3] is reported as 3 fold. For the same compound, the “G140S/Q148H (shift)” value in assay [4] is reported as 88 fold.
For `CN(C)C(=O)C(=O)N(C)C12CCC(C)(Cn3c1nc(C(=O)NCc1ccc(F)cc1)c(O)c3=O)OC2` (single isomer, unassigned) [Example 21A], the IC95 in the assay on HIV-1 (setting [5]) turned out to be 20 nM. The compound also returned an IC50 with HIV-1 wild type IIIB (setting [6]) of 20 nM. Besides, in assay [1], the “N155H (shift)” value came out at 3 fold. The “Q148R (shift)” value in assay [2] was found to be 3 fold. Also, in assay [3], the “Y143R (shift)” value was determined as 1 fold. Moreover, the “G140S/Q148H (shift)” value in assay [4] is on record as 73 fold.
Take `CN(C)C(=O)C(=O)N(C)C12CCC(O)(CC1)Cn1c2nc(C(=O)NCc2ccc(F)cc2)c(O)c1=O` [Example 17, N-(4-{[(4-Fluorobenzyl)amino]carbonyl}-5,9-dihydroxy-6-oxo-3,7-diazatricyclo[7.2.2.0^2,7]trideca-2,4-dien-1-yl)-N,N′,N′-trimethylethanediamide]: the IC95 with HIV-1 (setting [5]) stood at 20.5 nM. Moreover, in the assay with HIV-1 wild type IIIB (setting [6]), it took 46 nM to reach half-maximal inhibition (IC50). Besides, the “N155H (shift)” value in assay [1] amounted to 3 fold. In addition, the “Q148R (shift)” value in assay [2] turned out to be 3 fold. Besides, the “Y143R (shift)” value in assay [3] is recorded as 1 fold. The “G140S/Q148H (shift)” value in assay [4] stood at 38 fold.
Turning to `CCN(C(=O)C(=O)N(C)C)C12CCC(Cn3c1nc(C(=O)NCc1ccc(F)c(C)c1)c(O)c3=O)OC2` (single isomer, unassigned) [Example 18B, N-ethyl-N-(4-{[(4-fluoro-3-methylbenzyl)amino]carbonyl}-5-hydroxy-6-oxo-10-oxa-3,7-diazatricyclo[7.2.2.0^2,7]trideca-2,4-dien-1-yl)-N,N-dimethylethanediamide], the IC95 in the assay on HIV-1 (setting [5]) was 10.7 nM. In the assay with HIV-1 wild type IIIB (setting [6]), it took 10 nM to reach half-maximal inhibition (IC50). Also, the “N155H (shift)” value in assay [1] is 2 fold. Also, the “Q148R (shift)” value in assay [2] was found to be 2 fold. Also, the “Y143R (shift)” value in assay [3] is given as 2 fold. For the same compound, the “G140S/Q148H (shift)” value in assay [4] is given as 19 fold.
For `CCC1C2CCC(N(C)C(=O)C(=O)N(C)C)(CO2)c2nc(C(=O)NCc3ccc(F)cc3)c(O)c(=O)n21` (single isomer, unassigned) [Example 25B, N-(8-ethyl-4-{[(4-fluorobenzyl)amino]carbonyl}-5-hydroxy-6-oxo-10-oxa-3,7-diazatricyclo[7.2.2.0^2,7]trideca-2,4-dien-1-yl)-N,N′,N′-trimethylethanediamide], the IC95 in the assay with HIV-1 came to 7.9 nM. In addition, half-maximal inhibition in the assay with HIV-1 wild type IIIB (wild type IIIB) (IC50) required 8 nM. For the same compound, the “N155H (shift)” value in assay [1] came out at 1 fold. For the same compound, in assay [2], the “Q148R (shift)” value is 1 fold. In assay [3], the “Y143R (shift)” value is 1 fold. Besides, in assay [4], the “G140S/Q148H (shift)” value is listed as 1 fold.
`CC1C2CCC(NC(=O)C(=O)N(C)C)(CO2)c2nc(C(=O)NCc3ccc(F)cc3)c(O)c(=O)n21` (single isomer, unassigned) [Example 29C, N′-(4-{[(4-Fluorobenzyl)amino]carbonyl}-5-hydroxy-8-methyl-6-oxo-10-oxa-3,7-diazatricyclo[7.2.2.0^2,7]trideca-2,4-dien-1-yl)-N-dimethylethanediamide]: in the assay on HIV-1, the 95% effect concentration (IC95) stood at 47.8 nM. The compound further showed an IC50 in the assay on HIV-1 wild type IIIB (wild type IIIB) of 20 nM. Also, the “N155H (shift)” value in assay [1] is recorded as 17 fold. Also, the “Q148R (shift)” value in assay [2] was determined as 8 fold. Further, the “Y143R (shift)” value in assay [3] came to 3 fold. Moreover, the “G140S/Q148H (shift)” value in assay [4] stood at 81 fold.
Take `CC1C2CCC(N(C)C(=O)C(=O)N(C)C)(CO2)c2nc(C(=O)NCc3ccc(F)cc3)c(O)c(=O)n21` (single isomer, unassigned) [Example 27C, N-(4-{[(4-fluorobenzyl)amino]carbonyl}-5-hydroxy-8-methyl-6-oxo-10-oxa-3,7-diazatricyclo[7.2.2.0^2,7]trideca-2,4-dien-1-yl)-N,N′,N′-trimethylethanediamide]: the IC95 in the assay on HIV-1 came out at 7.7 nM. The compound also had an IC50 in the assay on HIV-1 wild type IIIB (wild type IIIB) of 15 nM. Also, in assay [1], the “N155H (shift)” value is reported as 11 fold. Further, the “Q148R (shift)” value in assay [2] was 12 fold. Also, in assay [3], the “Y143R (shift)” value amounted to 3 fold. The “G140S/Q148H (shift)” value in assay [4] is listed as more than 111 fold.
Take `CCC1C2CCC(NC(=O)C(=O)N(C)C)(CO2)c2nc(C(=O)NCc3ccc(F)cc3)c(O)c(=O)n21` (single isomer, unassigned) [Example 26C, N′-(8-ethyl-4-{[(4-fluorobenzyl)amino]carbonyl}-5-hydroxy-6-oxo-10-oxa-3,7-diazatricyclo[7.2.2.0^2,7]trideca-2,4-dien-1-yl)-N-dimethylethanediamide]: the IC95 in the assay on HIV-1 is listed as 18.1 nM. For the same compound, the IC50 in the assay on HIV-1 wild type IIIB (wild type IIIB) was 23 nM. The “N155H (shift)” value in assay [1] is given as 12 fold. Besides, the “Q148R (shift)” value in assay [2] is given as 9 fold. Besides, the “Y143R (shift)” value in assay [3] is 2 fold. Further, in assay [4], the “G140S/Q148H (shift)” value is listed as 26 fold.
For `CCC12CCC(N(C)C(=O)C(=O)N(C)C)(CO1)c1nc(C(=O)NCc3ccc(F)cc3)c(O)c(=O)n1C2` (single isomer, unassigned) [Example 20A, N-(9-ethyl-4-{[(4-fluorolbenzyl)amino]carbonyl}-5-hydroxy-6-oxo-10-oxa-3,7-diazatricyclo[7.2.2.0^2,7]trideca-2,4-dien-1-yl)-N,N′,N′-trimethylethanediamide], the IC95 in the assay with HIV-1 (setting [5]) turned out to be 11 nM. The compound further had an IC50 in the assay with HIV-1 wild type IIIB (wild type IIIB) of 8 nM. Also, the “N155H (shift)” value in assay [1] worked out at 3 fold. The “Q148R (shift)” value in assay [2] came out at 2 fold. Moreover, in assay [3], the “Y143R (shift)” value is recorded as 1 fold. Moreover, the “G140S/Q148H (shift)” value in assay [4] is listed as 21 fold.
With `CN(C)C(=O)C(=O)N(C)C12CCC(C)(Cn3c1nc(C(=O)NCc1ccc(F)cc1)c(O)c3=O)OC2` (single isomer, unassigned) [Example 21B], the IC95 in the assay on HIV-1 amounted to 21.0 nM. In the assay with HIV-1 wild type IIIB (wild type IIIB), this compound displayed an IC50 of 18 nM. The “N155H (shift)” value in assay [1] turned out to be 13 fold. Moreover, the “Q148R (shift)” value in assay [2] turned out to be 11 fold. Also, in assay [3], the “Y143R (shift)” value came to 3 fold. Besides, the “G140S/Q148H (shift)” value in assay [4] was more than 93 fold.
In the case of `Cc1nnc(C(=O)N(C)C23CCC(Cn4c2nc(C(=O)NCc2ccc(F)cc2)c(O)c4=O)C3)o1` (stereo not drawn) [Example 7, N-(4-Fluorobenzyl)-3-hydroxy-10-{methyl[(5-methyl-1,3,4-oxadiazol-2-yl)carbonyl]amino}-4-oxo-4,6,7,8,9,10-hexahydro-7,10-methanopyrimido[1,2-a]azepine-2-carboxamide], the IC95 in the assay with HIV-1 (setting [5]) worked out at 9.6 nM. Also, the IC50 with HIV-1 wild type IIIB (setting [6]) was 80 nM. In addition, the “N155H (shift)” value in assay [1] amounted to 3 fold. Besides, in assay [2], the “Q148R (shift)” value amounted to 4 fold. Moreover, in assay [3], the “Y143R (shift)” value was found to be 2 fold. The “G140S/Q148H (shift)” value in assay [4] turned out to be 44 fold.
`CCN(C(=O)C(=O)N(C)C)C12CCC(OC)(CC1)Cn1c2nc(C(=O)NCc2ccc(F)cc2)c(O)c1=O` [Example 16, N-Ethyl-N-(4-{[(4-fluorobenzyl)amino]carbonyl}-5-hydroxy-9-methoxy-6-oxo-3,7-diazatricyclo[7.2.2.0^2,7]trideca-2,4-dien-1-yl)-N,N′-dimethylethanediamide]: the 95% effect concentration (IC95) in the assay with HIV-1 (setting [5]) came out at 11.3 nM. This compound registered an IC50 in the assay on HIV-1 wild type IIIB (setting [6]) of 15 nM. Further, in assay [1], the “N155H (shift)” value is reported as 3 fold. Further, the “Q148R (shift)” value in assay [2] stood at 1 fold. Further, in assay [3], the “Y143R (shift)” value worked out at 1 fold. The “G140S/Q148H (shift)” value in assay [4] was 15 fold.
Turning to `CCC1C2CCC(N(C)C(=O)C(=O)N(C)C)(CO2)c2nc(C(=O)NCc3ccc(F)cc3)c(O)c(=O)n21` (single isomer, unassigned) [Example 25D, N-(8-ethyl-4-{[(4-fluorobenzyl)amino]carbonyl}-5-hydroxy-6-oxo-10-oxa-3,7-diazatricyclo[7.2.2.0^2,7]trideca-2,4-dien-1-yl)-N,N′,N′-trimethylethanediamide], the IC95 in the assay with HIV-1 turned out to be 7.2 nM. The IC50 in the assay with HIV-1 wild type IIIB (wild type IIIB) worked out at 15 nM. Further, the “N155H (shift)” value in assay [1] stood at 98 fold. Moreover, in assay [2], the “Q148R (shift)” value is reported as 38 fold. Besides, in assay [3], the “Y143R (shift)” value is 3 fold. For the same compound, the “G140S/Q148H (shift)” value in assay [4] is recorded as more than 111 fold.
As for `CC1C2CCC(N(C)C(=O)C(=O)N(C)C)(CO2)c2nc(C(=O)NCc3ccc(F)cc3)c(O)c(=O)n21` (single isomer, unassigned) [Example 27B, N-(4-{[(4-fluorobenzyl)amino]carbonyl}-5-hydroxy-8-methyl-6-oxo-10-oxa-3,7-diazatricyclo[7.2.2.0^2,7]trideca-2,4-dien-1-yl)-N,N′,N′-trimethylethanediamide], the IC95 in the assay with HIV-1 was 27.3 nM. This compound yielded an IC50 in the assay on HIV-1 wild type IIIB (wild type IIIB) of 24 nM. Moreover, the “N155H (shift)” value in assay [1] was 20 fold. The “Q148R (shift)” value in assay [2] was 9 fold. Moreover, in assay [3], the “Y143R (shift)” value is 7 fold. For the same compound, the “G140S/Q148H (shift)” value in assay [4] is more than 70 fold.
